Test results as given in the supplement of paper PMC10307832.

How the values were obtained:
Assay in all cases: relative viability (nuclei count vs DMSO), 5 days (fraction); higher = more cells survive
[1] = tested on: NCI-H647
How it was run: (§1)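 Relative viability divides the nuclei count in treated wells by that in vehicle wells. Lung cancer cell lines were seeded in 1536-well plates, dosed by pin tool the next day, and fixed and stained after 5 days in one step with final 0.05% Triton X-100, 1% formaldehyde and 1 ug/ml Hoechst. Dosing was a single drug or a fixed anchor-drug dose plus five library-drug doses (not always all listed) in √10 steps, and values are medians of duplicate plates imaged at 4×.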

[2] = tested on: NCI-H358
How it was run: as §1

[3] = tested on: EPLC-272H
How it was run: as §1

[4] = tested on: A-427
How it was run: as §1

[5] = tested on: LK-2
How it was run: as §1

[6] = tested on: NCI-H460
How it was run: as §1

[7] = tested on: NCI-H2405
How it was run: as §1

[8] = tested on: NCI-H1755
How it was run: as §1

[9] = tested on: RERF-LC-KJ
How it was run: as §1

[10] = tested on: SW 900
How it was run: as §1

[11] = tested on: NCI-H1734
How it was run: as §1

[12] = tested on: LU99A
How it was run: as §1

[13] = tested on: ChaGo-K-1
How it was run: as §1

[14] = tested on: EMC-BAC-2
How it was run: as §1

[15] = tested on: HCC-44
How it was run: as §1

[16] = tested on: NCI-H596
How it was run: as §1

[17] = tested on: NCI-H1792
How it was run: as §1

[18] = tested on: NCI-H1993
How it was run: as §1

[19] = tested on: NCI-H522
How it was run: as §1

[20] = tested on: EKVX
How it was run: as §1

[21] = tested on: HARA
How it was run: as §1

CCNC(=O)c1noc(-c2cc(C(C)C)c(O)cc2O)c1-c1ccc(CN2CCOCC2)cc1 [Luminespib] + NC(=O)Nc1cc(-c2cccc(F)c2)sc1C(=O)N[C@H]1CCCNC1 [AZD7762] (partner 0.2 µM)
relative viability ([1]; first compound 0.002 µM): 0.506
relative viability ([1]; first compound 0.006325 µM): 0.538
relative viability ([1]; first compound 0.02 µM): 0.176
relative viability ([1]; first compound 0.06325 µM): 0.0596
relative viability ([1]; first compound 0.2 µM): 0.0506
relative viability ([2]; first compound 0.002 µM): 0.607
relative viability ([2]; first compound 0.006325 µM): 0.632
relative viability ([2]; first compound 0.02 µM): 0.316
relative viability ([2]; first compound 0.06325 µM): 0.14
relative viability ([2]; first compound 0.2 µM): 0.134
relative viability ([3]; first compound 0.002 µM): 0.224
relative viability ([3]; first compound 0.006325 µM): 0.389
relative viability ([3]; first compound 0.02 µM): 0.193
relative viability ([3]; first compound 0.06325 µM): 0.0934
relative viability ([3]; first compound 0.2 µM): 0.127
relative viability ([4]; first compound 0.002 µM): 0.865
relative viability ([4]; first compound 0.006325 µM): 0.722
relative viability ([4]; first compound 0.02 µM): 0.557
relative viability ([4]; first compound 0.06325 µM): 0.258
relative viability ([4]; first compound 0.2 µM): 0.205
relative viability ([5]; first compound 0.002 µM): 0.37
relative viability ([5]; first compound 0.006325 µM): 0.481
relative viability ([5]; first compound 0.02 µM): 0.278
relative viability ([5]; first compound 0.06325 µM): 0.0715
relative viability ([5]; first compound 0.2 µM): 0.0593
relative viability ([6]; first compound 0.002 µM): 0.679
relative viability ([6]; first compound 0.006325 µM): 0.628
relative viability ([6]; first compound 0.02 µM): 0.717
relative viability ([6]; first compound 0.06325 µM): 0.0326
relative viability ([6]; first compound 0.2 µM): 0.0406
relative viability ([7]; first compound 0.002 µM): 0.865
relative viability ([7]; first compound 0.02 µM): 0.711
relative viability ([7]; first compound 0.06325 µM): 0.167
relative viability ([7]; first compound 0.2 µM): 0.127
relative viability ([8]; first compound 0.002 µM): 0.429
relative viability ([8]; first compound 0.006325 µM): 0.355
relative viability ([8]; first compound 0.02 µM): 0.352
relative viability ([8]; first compound 0.06325 µM): 0.245
relative viability ([8]; first compound 0.2 µM): 0.161
relative viability ([9]; first compound 0.002 µM): 0.936
relative viability ([9]; first compound 0.006325 µM): 0.998
relative viability ([9]; first compound 0.02 µM): 0.683
relative viability ([9]; first compound 0.06325 µM): 0.533
relative viability ([9]; first compound 0.2 µM): 0.178
relative viability ([10]; first compound 0.002 µM): 0.667
relative viability ([10]; first compound 0.006325 µM): 0.752
relative viability ([10]; first compound 0.02 µM): 0.396
relative viability ([10]; first compound 0.06325 µM): 0.129
relative viability ([10]; first compound 0.2 µM): 0.13
relative viability ([11]; first compound 0.002 µM): 0.516
relative viability ([11]; first compound 0.006325 µM): 0.497
relative viability ([11]; first compound 0.02 µM): 0.28
relative viability ([11]; first compound 0.06325 µM): 0.0991
relative viability ([11]; first compound 0.2 µM): 0.124
relative viability ([12]; first compound 0.002 µM): 0.378
relative viability ([12]; first compound 0.006325 µM): 0.347
relative viability ([12]; first compound 0.02 µM): 0.214
relative viability ([12]; first compound 0.06325 µM): 0.0724
relative viability ([12]; first compound 0.2 µM): 0.0654
relative viability ([13]; first compound 0.002 µM): 0.9
relative viability ([13]; first compound 0.006325 µM): 0.905
relative viability ([13]; first compound 0.02 µM): 0.799
relative viability ([13]; first compound 0.06325 µM): 0.515
relative viability ([13]; first compound 0.2 µM): 0.172
relative viability ([14]; first compound 0.002 µM): 1.12
relative viability ([14]; first compound 0.006325 µM): 0.655
relative viability ([14]; first compound 0.02 µM): 0.689
relative viability ([14]; first compound 0.06325 µM): 0.769
relative viability ([14]; first compound 0.2 µM): 0.226
relative viability ([15]; first compound 0.002 µM): 1.04
relative viability ([15]; first compound 0.006325 µM): 0.995
relative viability ([15]; first compound 0.02 µM): 1.15
relative viability ([15]; first compound 0.06325 µM): 1.07
relative viability ([15]; first compound 0.2 µM): 0.959
relative viability ([16]; first compound 0.002 µM): 1.11
relative viability ([16]; first compound 0.006325 µM): 1.17
relative viability ([16]; first compound 0.02 µM): 0.857
relative viability ([16]; first compound 0.06325 µM): 0.934
relative viability ([16]; first compound 0.2 µM): 0.879
relative viability ([17]; first compound 0.002 µM): 0.797
relative viability ([17]; first compound 0.006325 µM): 0.519
relative viability ([17]; first compound 0.02 µM): 0.146
relative viability ([17]; first compound 0.06325 µM): 0.0335
relative viability ([17]; first compound 0.2 µM): 0.0361
relative viability ([18]; first compound 0.002 µM): 0.759
relative viability ([18]; first compound 0.006325 µM): 0.772
relative viability ([18]; first compound 0.02 µM): 0.513
relative viability ([18]; first compound 0.06325 µM): 0.247
relative viability ([18]; first compound 0.2 µM): 0.237
relative viability ([19]; first compound 0.002 µM): 0.866
relative viability ([19]; first compound 0.006325 µM): 0.93
relative viability ([19]; first compound 0.02 µM): 0.694
relative viability ([19]; first compound 0.06325 µM): 0.713
relative viability ([19]; first compound 0.2 µM): 0.353
relative viability ([20]; first compound 0.002 µM): 0.669
relative viability ([20]; first compound 0.006325 µM): 0.68
relative viability ([20]; first compound 0.02 µM): 0.475
relative viability ([20]; first compound 0.06325 µM): 0.239
relative viability ([20]; first compound 0.2 µM): 0.104
relative viability ([21]; first compound 0.002 µM): 0.304
relative viability ([21]; first compound 0.006325 µM): 0.291
relative viability ([21]; first compound 0.02 µM): 0.511
relative viability ([21]; first compound 0.06325 µM): 0.18
relative viability ([21]; first compound 0.2 µM): 0.125
